Values of other authors as cited in paper PMC12910647, “Tumor-Targeted Delivery of an EGFR Inhibitor Prodrug via Site-Specific Albumin Conjugation” (Journal of Medicinal Chemistry, 2026).

Set-up: method as in not given
Details: in mice, reported value; ref not given

In the case of C=CC(=O)Nc1cc(Nc2nccc(-c3cn(C)c4ccccc34)n2)c(OC)cc1N(C)CCN(C)C [osimertinib], the “maximum tolerated dose (MTD)” value is listed as 25 mg/kg.
